Laboratory results published in the NIST ThermoML archive (doi:10.1016/j.fluid.2016.02.030).

Test: osmotic coefficient (dimensionless); mn = molality of the nth substance listed, in mol/kg
Settings: 308.15 K, Liquid, omometer

OC[C@@H](O)[C@@H](O[C@H]1O[C@H](CO)[C@@H](O)[C@H](O)[C@H]1O)[C@H](O)[C@@H](O)CO [4-O-α-D-glucopyranosyl-D-glucitol] + O
Settings | osmotic coefficient
m1 = 0.0292 | 0.9903
m1 = 0.1187 | 0.9976
m1 = 0.219 | 1.012
m1 = 0.3226 | 1.019
m1 = 0.4282 | 1.028
m1 = 0.5127 | 1.031
m1 = 0.5925 | 1.032
m1 = 0.774 | 1.049
m1 = 0.9158 | 1.06
m1 = 1.054 | 1.067
m1 = 1.261 | 1.081
m1 = 1.918 | 1.151
m1 = 2.645 | 1.217
m1 = 3.591 | 1.272

O=C[C@H](O)[C@@H](O)[C@H](O)CO [D-xylose] + O
Settings | osmotic coefficient
m1 = 5.333 | 1.007
m1 = 5.362 | 1.002
m1 = 5.4 | 0.9966
m1 = 5.435 | 0.9919
m1 = 5.468 | 0.9881
m1 = 5.502 | 0.987
m1 = 5.516 | 0.9868
m1 = 5.53 | 0.9859
m1 = 5.542 | 0.9858
m1 = 5.551 | 0.9857
m1 = 5.559 | 0.9852
m1 = 5.566 | 0.9853
m1 = 5.574 | 0.985
m1 = 5.582 | 0.9853
m1 = 5.59 | 0.9852
m1 = 5.598 | 0.9866
m1 = 5.604 | 0.9869
m1 = 5.611 | 0.9874
m1 = 5.619 | 0.9894
m1 = 5.625 | 0.997

OC[C@H]1O[C@@](CO)(O[C@H]2O[C@H](CO)[C@@H](O)[C@H](O)[C@H]2O)[C@@H](O)[C@@H]1O [D-sucrose] + O
Settings | osmotic coefficient
m1 = 0.0296 | 0.9997
m1 = 0.0581 | 1.001
m1 = 0.0904 | 1.008
m1 = 0.1209 | 1.013
m1 = 0.1534 | 1.017
m1 = 0.1988 | 1.019
m1 = 0.2535 | 1.025
m1 = 0.3157 | 1.028
m1 = 0.3938 | 1.032
m1 = 0.477 | 1.035
m1 = 0.5567 | 1.039
m1 = 0.5822 | 1.04
m1 = 0.648 | 1.042
m1 = 0.7265 | 1.047
m1 = 0.8492 | 1.053
m1 = 0.971 | 1.058
m1 = 1.087 | 1.065
m1 = 1.186 | 1.067
m1 = 1.275 | 1.074
m1 = 1.996 | 1.149
m1 = 2.679 | 1.202
m1 = 3.412 | 1.248
m1 = 3.927 | 1.276

O=C[C@H](O)[C@@H](O)[C@@H](O)CO [L-arabinose] + O
Settings | osmotic coefficient
m1 = 0.0332 | 0.9993
m1 = 0.0672 | 0.9973
m1 = 0.1346 | 0.9965
m1 = 0.2071 | 0.995
m1 = 0.2766 | 0.9956
m1 = 0.3435 | 0.9951
m1 = 0.4151 | 0.9944
m1 = 0.4952 | 0.9947
m1 = 0.5785 | 0.9949
m1 = 0.6498 | 0.9944
m1 = 0.8204 | 0.9948
m1 = 0.9055 | 0.9945
m1 = 1.041 | 0.9945
m1 = 1.177 | 0.9944
m1 = 1.313 | 0.9942
m1 = 1.659 | 0.995
m1 = 2.402 | 1.002
m1 = 3.272 | 1.016

OC[C@H]1O[C@H](OC[C@H]2O[C@H](O[C@]3(CO)O[C@H](CO)[C@@H](O)[C@@H]3O)[C@H](O)[C@@H](O)[C@@H]2O)[C@H](O)[C@@H](O)[C@H]1O [D-raffinose] + O
Settings | osmotic coefficient
m1 = 0.0343 | 1.002
m1 = 0.1059 | 1.025
m1 = 0.1837 | 1.04
m1 = 0.2667 | 1.062
m1 = 0.3581 | 1.083
m1 = 0.4515 | 1.117
m1 = 0.4902 | 1.134
m1 = 0.6205 | 1.168

O=C[C@H](O)[C@@H](O)[C@H](O[C@@H]1O[C@H](CO)[C@H](O)[C@H](O)[C@H]1O)[C@H](O)CO [4-O-β-D-galactopyranosyl-D-glucose] + O
Settings | osmotic coefficient
m1 = 0.014 | 0.9946
m1 = 0.0578 | 1.011
m1 = 0.1025 | 1.022
m1 = 0.1286 | 1.03
m1 = 0.1795 | 1.046
m1 = 0.2313 | 1.058
m1 = 0.2909 | 1.065
m1 = 0.3217 | 1.067

O=C[C@H](O)[C@@H](O)[C@@H](O)[C@H](O)CO [(+)-galactose] + O
Settings | osmotic coefficient
m1 = 0.0558 | 0.9999
m1 = 0.1149 | 1.001
m1 = 0.1727 | 1.004
m1 = 0.2306 | 1.003
m1 = 0.2878 | 1.004
m1 = 0.3548 | 1.006
m1 = 0.4098 | 1.006
m1 = 0.4829 | 1.007
m1 = 0.5526 | 1.008
m1 = 0.6174 | 1.008
m1 = 0.6818 | 1.009
m1 = 0.7847 | 1.01
m1 = 0.8958 | 1.011
m1 = 1.009 | 1.012
m1 = 1.138 | 1.013
m1 = 1.308 | 1.016
m1 = 1.85 | 1.025
m1 = 2.61 | 1.045

OC[C@@H](O)[C@@H](O)[C@H](O)[C@@H](O)CO [D-sorbitol] + O
Settings | osmotic coefficient
m1 = 0.0278 | 0.9979
m1 = 0.0558 | 1.001
m1 = 0.111 | 0.9992
m1 = 0.1676 | 1.003
m1 = 0.2296 | 1.002
m1 = 0.2892 | 1.004
m1 = 0.3523 | 1.003
m1 = 0.4124 | 1.004
m1 = 0.4781 | 1.003
m1 = 0.5436 | 1.003
m1 = 0.6109 | 1.003
m1 = 0.6764 | 1.003
m1 = 0.7778 | 1.003
m1 = 0.8812 | 1.004
m1 = 0.9996 | 1.004
m1 = 1.112 | 1.006
m1 = 1.284 | 1.008
m1 = 1.723 | 1.013
m1 = 2.342 | 1.027
m1 = 2.956 | 1.041
m1 = 3.645 | 1.057

O=C[C@H](O)[C@@H](O)[C@H](O)[C@H](O)CO [D-glucose] + O
Settings | osmotic coefficient
m1 = 0.0557 | 1.002
m1 = 0.1126 | 1.005
m1 = 0.1685 | 1.004
m1 = 0.2236 | 1.004
m1 = 0.2913 | 1.004
m1 = 0.3539 | 1.005
m1 = 0.4081 | 1.006
m1 = 0.4775 | 1.006
m1 = 0.5382 | 1.006
m1 = 0.5708 | 1.008
m1 = 0.6209 | 1.008
m1 = 0.6815 | 1.008
m1 = 0.7347 | 1.009
m1 = 0.7963 | 1.009
m1 = 0.9085 | 1.01
m1 = 1.019 | 1.012
m1 = 1.109 | 1.014
m1 = 1.215 | 1.015
m1 = 1.323 | 1.017
m1 = 1.569 | 1.022
m1 = 1.841 | 1.03
m1 = 2.386 | 1.044
m1 = 2.945 | 1.061
m1 = 3.626 | 1.078
m1 = 4.847 | 1.11

O=C(CO)[C@@H](O)[C@H](O)[C@H](O)CO [D-fructose] + O
Settings | osmotic coefficient
m1 = 0.0559 | 0.9986
m1 = 0.1125 | 0.9958
m1 = 0.1714 | 0.9944
m1 = 0.2296 | 0.9949
m1 = 0.2923 | 0.9947
m1 = 0.3466 | 0.9945
m1 = 0.4185 | 0.9946
m1 = 0.4792 | 0.9949
m1 = 0.5468 | 0.9947
m1 = 0.614 | 0.9951
m1 = 0.6925 | 0.9951
m1 = 0.7872 | 0.9955
m1 = 0.9018 | 0.995
m1 = 1.022 | 0.9947
m1 = 1.139 | 0.9949
m1 = 1.266 | 0.9949
m1 = 1.741 | 0.9972
m1 = 2.401 | 1.006
m1 = 2.95 | 1.014
m1 = 3.625 | 1.027
m1 = 5.424 | 1.069

OC[C@@H](O)[C@H](O)[C@@H](O)CO [xylitol] + O
Settings | osmotic coefficient
m1 = 0.0663 | 1.002
m1 = 0.1332 | 1.002
m1 = 0.2029 | 1.002
m1 = 0.2718 | 1.002
m1 = 0.3466 | 1.003
m1 = 0.4199 | 1.004
m1 = 0.495 | 1.005
m1 = 0.5643 | 1.005
m1 = 0.6343 | 1.005
m1 = 0.7296 | 1.006
m1 = 0.792 | 1.007
m1 = 0.8908 | 1.008
m1 = 0.9999 | 1.011
m1 = 1.143 | 1.012
m1 = 1.297 | 1.015
m1 = 1.474 | 1.017
m1 = 2.027 | 1.026
m1 = 2.646 | 1.036
m1 = 3.289 | 1.042
m1 = 4.413 | 1.048

O=C[C@@H](O)[C@@H](O)[C@H](O)[C@H](O)CO [D-mannose] + O
Settings | osmotic coefficient
m1 = 0.1128 | 0.9933
m1 = 0.2298 | 0.989
m1 = 0.3533 | 0.984
m1 = 0.4798 | 0.9828
m1 = 0.6097 | 0.9824
m1 = 0.7659 | 0.9832
m1 = 0.9375 | 0.9836
m1 = 1.117 | 0.9842
m1 = 1.304 | 0.9852
m1 = 1.829 | 0.9903
m1 = 2.544 | 0.9978
m1 = 3.659 | 1.017

O=C[C@H](O)[C@H](O)[C@H](O)CO [D-ribose] + O
Settings | osmotic coefficient
m1 = 0.0338 | 0.9992
m1 = 0.0672 | 0.988
m1 = 0.1353 | 0.9826
m1 = 0.2041 | 0.9786
m1 = 0.2789 | 0.9769
m1 = 0.3505 | 0.9753
m1 = 0.4242 | 0.9745
m1 = 0.499 | 0.9743
m1 = 0.5801 | 0.9736
m1 = 0.6538 | 0.9734
m1 = 0.7165 | 0.973
m1 = 0.7426 | 0.9732
m1 = 0.8289 | 0.973
m1 = 0.9054 | 0.9732
m1 = 1.038 | 0.9735
m1 = 1.183 | 0.9735
m1 = 1.453 | 0.9745
m1 = 1.988 | 0.9774
m1 = 2.594 | 0.9857
m1 = 3.266 | 0.9944
